The record followed here is ChEMBL document CHEMBL3431459, “Roche carnitine palmitoyltransferase modulator screening data (supplementary data associated with the publication CHEMBL2216752)”.

In brackets after ≈: the same amount, converted by molar mass.

The target of series [1] is T1, Carnitine O-palmitoyltransferase 1, muscle isoform (Homo sapiens, UniProt Q92523).
T1 sequence (Q92523 whole entry): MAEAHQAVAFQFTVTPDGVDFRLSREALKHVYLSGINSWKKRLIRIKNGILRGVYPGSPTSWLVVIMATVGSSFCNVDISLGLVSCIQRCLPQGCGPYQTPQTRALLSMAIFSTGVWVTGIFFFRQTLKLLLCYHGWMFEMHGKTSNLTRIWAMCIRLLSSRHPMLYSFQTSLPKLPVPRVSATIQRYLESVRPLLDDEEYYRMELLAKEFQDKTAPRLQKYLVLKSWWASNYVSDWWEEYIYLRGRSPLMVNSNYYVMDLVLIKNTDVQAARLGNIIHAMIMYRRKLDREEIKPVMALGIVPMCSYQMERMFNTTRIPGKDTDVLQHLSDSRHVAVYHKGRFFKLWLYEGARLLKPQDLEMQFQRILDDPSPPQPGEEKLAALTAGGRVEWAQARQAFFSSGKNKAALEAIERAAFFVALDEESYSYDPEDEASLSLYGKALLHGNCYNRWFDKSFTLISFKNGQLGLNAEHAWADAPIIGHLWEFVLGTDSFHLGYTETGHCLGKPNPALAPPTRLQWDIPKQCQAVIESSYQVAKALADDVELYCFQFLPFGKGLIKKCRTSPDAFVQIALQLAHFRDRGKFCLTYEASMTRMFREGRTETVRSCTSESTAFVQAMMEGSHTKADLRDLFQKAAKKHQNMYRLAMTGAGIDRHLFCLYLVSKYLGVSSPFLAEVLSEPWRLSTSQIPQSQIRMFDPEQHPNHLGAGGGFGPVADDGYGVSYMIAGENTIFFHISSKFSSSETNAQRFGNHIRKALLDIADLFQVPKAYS
Briefly: SUPPLEMENTARY: Inhibition of Carnitine palmitoyltransferase 1, muscle isoform. Details: species or system Muscle tissue.

The target of series [2] is T2, Carnitine O-palmitoyltransferase 1, liver isoform (Homo sapiens, UniProt P50416).
T2 sequence (P50416 whole entry): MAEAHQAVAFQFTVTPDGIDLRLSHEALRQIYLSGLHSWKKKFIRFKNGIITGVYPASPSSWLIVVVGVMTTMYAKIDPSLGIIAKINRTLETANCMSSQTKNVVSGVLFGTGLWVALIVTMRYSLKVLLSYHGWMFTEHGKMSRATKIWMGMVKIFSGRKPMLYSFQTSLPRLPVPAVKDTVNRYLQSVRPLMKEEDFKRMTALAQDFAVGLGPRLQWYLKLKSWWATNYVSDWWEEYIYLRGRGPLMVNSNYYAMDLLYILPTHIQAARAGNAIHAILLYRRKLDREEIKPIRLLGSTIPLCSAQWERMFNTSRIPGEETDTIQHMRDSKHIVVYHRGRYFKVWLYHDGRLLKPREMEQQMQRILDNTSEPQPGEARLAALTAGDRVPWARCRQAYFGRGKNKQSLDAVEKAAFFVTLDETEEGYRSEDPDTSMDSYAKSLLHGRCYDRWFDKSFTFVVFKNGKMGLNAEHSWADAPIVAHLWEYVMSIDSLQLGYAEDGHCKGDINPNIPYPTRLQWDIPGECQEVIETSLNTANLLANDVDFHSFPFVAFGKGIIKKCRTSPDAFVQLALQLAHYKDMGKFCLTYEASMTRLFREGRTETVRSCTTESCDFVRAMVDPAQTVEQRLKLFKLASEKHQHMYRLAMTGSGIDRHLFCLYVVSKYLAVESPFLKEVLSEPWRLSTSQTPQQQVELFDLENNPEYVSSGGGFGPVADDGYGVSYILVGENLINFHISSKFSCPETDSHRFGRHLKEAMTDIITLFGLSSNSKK
Briefly: (§1) SUPPLEMENTARY: Inhibition of Carnitine palmitoyltransferase 1, liver isoform.

Series [3] addresses T3, Carnitine O-palmitoyltransferase 1, liver isoform (Rattus norvegicus, UniProt P32198).
T3 sequence (P32198 whole entry): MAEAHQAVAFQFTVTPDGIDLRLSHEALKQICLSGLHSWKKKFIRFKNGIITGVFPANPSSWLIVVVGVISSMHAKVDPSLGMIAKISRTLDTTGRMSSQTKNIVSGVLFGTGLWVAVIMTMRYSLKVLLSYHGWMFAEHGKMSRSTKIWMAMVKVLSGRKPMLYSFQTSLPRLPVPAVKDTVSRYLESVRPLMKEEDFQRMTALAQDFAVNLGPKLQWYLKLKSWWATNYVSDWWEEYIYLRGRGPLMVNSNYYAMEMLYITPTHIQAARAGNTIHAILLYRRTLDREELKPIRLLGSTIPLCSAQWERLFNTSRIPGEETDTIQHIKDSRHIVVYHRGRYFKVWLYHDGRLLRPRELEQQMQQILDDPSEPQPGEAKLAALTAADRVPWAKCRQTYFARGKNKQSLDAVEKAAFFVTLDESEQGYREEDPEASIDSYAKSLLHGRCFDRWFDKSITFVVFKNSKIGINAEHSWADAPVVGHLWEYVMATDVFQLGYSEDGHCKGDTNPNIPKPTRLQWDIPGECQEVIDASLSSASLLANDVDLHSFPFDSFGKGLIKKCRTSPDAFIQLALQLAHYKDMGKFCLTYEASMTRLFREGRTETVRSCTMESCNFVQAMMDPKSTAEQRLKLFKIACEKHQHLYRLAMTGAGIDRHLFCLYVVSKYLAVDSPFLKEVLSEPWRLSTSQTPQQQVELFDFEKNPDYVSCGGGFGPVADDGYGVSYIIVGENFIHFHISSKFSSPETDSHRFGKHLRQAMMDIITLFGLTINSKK
The description is as §1.

Series [4] can be described thus: SUPPLEMENTARY: Lipophilicity (log D) Determination by high-throughput shake-flask. The following applies: octanol/water. In kind it is physicochemical.
Series [5] in a line: SUPPLEMENTARY: PAMPA permeability assay. The class given is physicochemical. The note with it: read-out: Permeability.
Series [6] is described as follows: SUPPLEMENTARY: Lyophilisation Solubility Assay (LYSA). The class given is physicochemical. The note with it: read-out: Kinetic_solubility.
Series [7] concerns the target T4, Carnitine O-palmitoyltransferase 2, mitochondrial (Homo sapiens, UniProt P23786).
T4 sequence (P23786 whole entry): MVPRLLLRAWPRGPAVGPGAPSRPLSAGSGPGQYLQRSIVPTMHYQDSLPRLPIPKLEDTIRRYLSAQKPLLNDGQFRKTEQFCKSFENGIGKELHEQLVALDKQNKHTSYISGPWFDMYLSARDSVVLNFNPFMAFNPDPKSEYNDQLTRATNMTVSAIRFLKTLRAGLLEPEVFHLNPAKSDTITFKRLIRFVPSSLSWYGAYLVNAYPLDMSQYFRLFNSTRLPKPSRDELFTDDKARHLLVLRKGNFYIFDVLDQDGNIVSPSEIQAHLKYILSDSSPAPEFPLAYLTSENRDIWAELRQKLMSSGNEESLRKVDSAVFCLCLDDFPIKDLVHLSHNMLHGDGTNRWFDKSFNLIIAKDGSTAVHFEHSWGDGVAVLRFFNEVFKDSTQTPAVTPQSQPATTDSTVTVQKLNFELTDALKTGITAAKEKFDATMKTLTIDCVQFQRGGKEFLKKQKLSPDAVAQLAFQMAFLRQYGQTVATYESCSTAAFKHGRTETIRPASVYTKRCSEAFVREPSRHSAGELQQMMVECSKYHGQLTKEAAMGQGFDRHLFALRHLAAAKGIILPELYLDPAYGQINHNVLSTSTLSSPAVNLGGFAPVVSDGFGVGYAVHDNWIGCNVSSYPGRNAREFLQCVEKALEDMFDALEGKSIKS
Briefly: (§2) SUPPLEMENTARY: Inhibition of Carnitine palmitoyltransferase 2.

In series [8] the target is T5, Carnitine O-palmitoyltransferase 2, mitochondrial (Rattus norvegicus, UniProt P18886).
T5 sequence (P18886 whole entry): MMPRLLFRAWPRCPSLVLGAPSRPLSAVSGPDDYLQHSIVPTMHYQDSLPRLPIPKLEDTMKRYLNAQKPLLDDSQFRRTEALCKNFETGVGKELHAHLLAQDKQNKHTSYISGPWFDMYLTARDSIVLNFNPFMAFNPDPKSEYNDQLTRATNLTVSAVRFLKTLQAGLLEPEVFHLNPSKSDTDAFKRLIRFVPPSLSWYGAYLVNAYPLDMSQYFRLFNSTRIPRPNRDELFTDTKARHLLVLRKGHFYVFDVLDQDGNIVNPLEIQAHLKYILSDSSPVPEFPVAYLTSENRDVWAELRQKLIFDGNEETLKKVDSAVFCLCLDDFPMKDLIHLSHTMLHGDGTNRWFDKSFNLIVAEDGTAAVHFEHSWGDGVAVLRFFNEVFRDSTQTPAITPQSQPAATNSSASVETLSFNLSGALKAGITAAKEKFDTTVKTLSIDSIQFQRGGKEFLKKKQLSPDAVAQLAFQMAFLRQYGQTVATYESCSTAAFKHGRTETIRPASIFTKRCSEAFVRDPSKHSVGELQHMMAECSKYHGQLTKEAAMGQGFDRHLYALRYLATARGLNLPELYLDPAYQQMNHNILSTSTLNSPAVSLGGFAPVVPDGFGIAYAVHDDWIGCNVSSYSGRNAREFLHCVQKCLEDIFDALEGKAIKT
The description is as §2.

For `O=C(O)c1cncc(-c2noc([C@H]3CCCCN3C(=O)COc3ccccc3)n2)c1`, the IC50 in series [1] is greater than 100 µM; in series [2] it was 0.226 µM; in series [3] it was 4.51 µM; in series [7], 96.3 µM; in series [8], greater than 100 µM. Besides, the pH-dependent lipophilicity (logD) in series [4] is -1.07. The Papp in series [5] turned out to be 0.7 nm/s. Besides, the solubility kinetic in series [6] is 0.397 mg/mL (≈ 972 µM).

Consider `CCOC(=O)c1cncc(-c2noc([C@H]3CCCCN3C(=O)COc3ccccc3)n2)c1`, for which the IC50 in series [1] was greater than 100 µM; in series [2], 0.0786 µM; in series [3] it was 0.399 µM; in series [7], 24.3 µM; in series [8], greater than 100 µM. This compound also showed a logD in series [4] of 3.38. Also, the Papp in series [5] turned out to be 15.6 nm/s. In addition, the solubility kinetic in series [6] amounted to 0.009 mg/mL (≈ 20.6 µM).

For `O=C(O)c1ccc(NC(=O)c2ccc(NS(=O)(=O)c3cc(Cl)cc(Cl)c3)s2)cc1`, the IC50 is 4.38 µM in series [1]; 0.153 µM in series [2]; 0.261 µM in series [3]; greater than 100 µM in series [7]; greater than 100 µM in series [8]. Also, the logD in series [4] is -1.09. The Papp in series [5] stood at 0.1 nm/s. For the same compound, the solubility kinetic in series [6] worked out at 0.378 mg/mL (≈ 802 µM).

In the case of `O=C(COc1ccccc1)N1CCCC[C@@H]1c1nc(-c2ccc3[nH]ncc3c2)n[nH]1`, the IC50 in series [1] is greater than 100 µM; in series [2], 0.0874 µM; in series [3] it was 0.683 µM; in series [7], 13.9 µM; in series [8] it was 61.5 µM. Moreover, the logD in series [4] stood at 2.71. Besides, in series [5], the Papp was 16.4 nm/s. For the same compound, in series [6], the solubility kinetic is 0.053 mg/mL (≈ 132 µM).

Regarding `NC(=O)c1cncc(-c2noc([C@H]3CCCCN3C(=O)COc3ccccc3)n2)c1`, the IC50 is greater than 100 µM in series [1]; 0.113 µM in series [2]; 0.41 µM in series [3]; 24.3 µM in series [7]; 86.3 µM in series [8]. Also, the logD in series [4] was found to be 1.88. Also, in series [5], the Papp came to 38.3 nm/s. Moreover, the solubility kinetic in series [6] was determined as 0.141 mg/mL (≈ 346 µM).

With `CCOC(=O)c1cn2ccc(-c3noc([C@H]4CCCCN4C(=O)COc4ccccc4)n3)cc2n1`, the concentration for half-maximal inhibition (IC50) was greater than 100 µM in series [1]; 0.0681 µM in series [2]; 0.459 µM in series [3]; greater than 100 µM in series [7]; greater than 100 µM in series [8]. This compound also had a logD in series [4] of 2.92. Further, the Papp in series [5] is 19.9 nm/s. Also, the solubility kinetic in series [6] was determined as 0.022 mg/mL (≈ 46.3 µM).

As to `NC(=O)c1cn2ccc(-c3noc([C@H]4CCCCN4C(=O)COc4ccccc4)n3)cc2n1`, the IC50 in series [1] is greater than 100 µM; in series [2] it was 0.0964 µM; in series [3], 0.663 µM; in series [7] it was 12.1 µM; in series [8], 18.3 µM. Further, the logD in series [4] stood at 2.79. Further, the Papp in series [5] amounted to 55.5 nm/s. Further, the solubility kinetic in series [6] is 0.01 mg/mL (≈ 22.4 µM).

In the case of `O=C(NCCO)c1cccc(-c2n[nH]c([C@H]3CCCCN3C(=O)COc3ccccc3)n2)c1`, the half-maximal inhibitory concentration (IC50) was greater than 100 µM in series [1]; 0.242 µM in series [2]; 0.713 µM in series [3]; 30.3 µM in series [7]; 70 µM in series [8]. Besides, in series [4], the logD is 1.98. Moreover, the Papp in series [5] was 5.1 nm/s. Besides, the solubility kinetic in series [6] was found to be 0.138 mg/mL (≈ 307 µM).

Turning to `COC[C@@H]1CCN(NC(=O)c2cccc(-c3n[nH]c([C@H]4CCCCN4C(=O)COc4ccccc4)n3)c2)C1`, the IC50 was greater than 100 µM in series [1]; 0.159 µM in series [2]; 1.3 µM in series [3]; 74.3 µM in series [7]; 73.6 µM in series [8]. For the same compound, in series [4], the logD turned out to be 2.45. The Papp in series [5] was 33.1 nm/s. For the same compound, in series [6], the solubility kinetic was 0.229 mg/mL (≈ 442 µM).

For `N#Cc1cccc(-c2n[nH]c([C@H]3CCCCN3C(=O)COc3ccccc3)n2)c1`, the IC50 in series [1] is greater than 100 µM; in series [2], 0.161 µM; in series [3] it was 0.219 µM; in series [7], 29.8 µM; in series [8] it was 33.8 µM. Also, the logD in series [4] came to 2.98. The Papp in series [5] worked out at 29.6 nm/s. Besides, in series [6], the solubility kinetic was found to be 0.031 mg/mL (≈ 80 µM).
